In patent publication US4558134A, “Certain phenoxy-pyridine-carbonitriles having antiviral activity” (The Dow Chemical Company, priority 1983, dated 1985):
Values after ≈ are worked out from the molar mass of the structure shown. Like-named read-outs stand apart in the source and are kept apart here.

Experiments:
[1] = tested on: rhinovirus type 39 (RV-39); experiment: Tissue culture testing, reduction of viral cytopathic effect, RV-39; assay type: cell-based; conditions: Enterovirus, read-out: Lowest concentration of the compound necessary to cause a 50 percent reduction in cytopathic effect, RV-39
[2] = tested on: rhinovirus type 64 (RV-64); experiment: Tissue culture testing, reduction of viral cytopathic effect, RV-64; assay type: cell-based; conditions: Enterovirus, read-out: Lowest concentration of the compound necessary to cause a 50 percent reduction in cytopathic effect, RV-64
[3] = tested on: rhinovirus type 1A (RV-1A); experiment: Tissue culture testing, reduction of viral cytopathic effect, RV-1A; assay type: cell-based; conditions: Enterovirus, read-out: Lowest concentration of the compound necessary to cause a 50 percent reduction in cytopathic effect, RV-1A
Coxsackie A21 virus = experiment: Continuous Oral Feeding test in mice challenged IP with Coxsackie A21 virus; conditions: 0.06% by weight in diet; 10 days; >3.84 active (95% confidence level)
in vitro = conditions: human, hela cells
rhinovirus type 2 (RV-2) = experiment: Tissue culture testing, reduction of viral cytopathic effect, RV-2; assay type: cell-based; conditions: Enterovirus, read-out: Lowest concentration of the compound necessary to cause a 50 percent reduction in cytopathic effect, RV-2
[4] = tested on: polio virus type 2 (Polio-2); experiment: organism not typed; assay type: cell-based; conditions: HeLa, read-out: Lowest concentration of the compound necessary to cause a 50 percent reduction in cytopathic effect, Polio-2
[5] = tested on: Coxsackie A21 virus (Cox A21); experiment: Tissue culture testing, reduction of viral cytopathic effect, Cox A21; assay type: cell-based; conditions: HeLa cells, 48 and 72 hours, read-out: Lowest concentration of the compound necessary to cause a 50 percent reduction in cytopathic effect, CoxA21
[6] = HeLa cells, RV-39, 48 and 72 hours
[7] = HeLa cells, RV-64, 48 and 72 hours
[8] = HeLa cells, RV-1A, 48 and 72 hours
[9] = HeLa cells, RV-2, 48 and 72 hours

SMILES | EC50 [1, 6] [µg/mL] | EC50 [2, 7] [µg/mL] | EC50 [3, 8] [µg/mL] | Continuous Oral Feeding X^2 (chi-square, mortality) (Coxsackie A21 virus) | MCC (in vitro) [µg/mL] | EC50 (rhinovirus type 2 (RV-2); [9]) [µg/mL] | EC50 [4] [µg/mL] | EC50 [5] [µg/mL] | EC50 ([1]; HeLa) [µg/mL] | EC50 ([3]; HeLa) [µg/mL] | EC50 ([2]; HeLa) [µg/mL] | EC50 (rhinovirus type 2 (RV-2); HeLa) [µg/mL]
CCSc1ccc(Oc2ccc(Cl)c(Cl)c2)nc1C#N [Example 20, 6-(3,4-Dichlorophenoxy)-3-ethylthio-2-pyridinecarbonitrile] | 6.25 (≈ 19.2 µM) | 12.5 (≈ 38.4 µM) | 3.13 (≈ 9.62 µM) | 6.5 | > 12.5 | 3.13 (≈ 9.62 µM) | < 0.78 | 0.03 (≈ 0.0922 µM) | – | – | – | –
CCSc1ccc(Oc2ccc(Cl)c(Cl)c2)c(C#N)n1 [Example 21, 3-(3,4-Dichlorophenoxy)-6-ethylthio-2-pyridinecarbonitrile] | – | 2.5 (≈ 7.69 µM) | 2.5 (≈ 7.69 µM) | – | 2.5 | 0.6 (≈ 1.84 µM) | – | 0.6 (≈ 1.84 µM) | – | – | – | –
CCSc1cnc(Oc2ccc(Cl)c(Cl)c2)cc1C#N [Example 22, 2-(3,4-Dichlorophenoxy)-5-ethylthio-4-pyridinecarbonitrile] | – | – | > 50 | – | 50 | 2.5 (≈ 7.69 µM) | – | 0.63 (≈ 1.94 µM) | – | – | – | –
CCSc1cc(C#N)c(Oc2ccc(Cl)c(Cl)c2)cn1 [Example 23, 5-(3,4-Dichlorophenoxy)-2-ethylthio-4-pyridinecarbonitrile] | – | – | > 50 | – | 50 | 2.5 (≈ 7.69 µM) | – | 2.5 (≈ 7.69 µM) | – | – | – | –
CSc1cc(C#N)c(Oc2ccc(Cl)c(Cl)c2)cn1 [Example 24, 5-(3,4-Dichlorophenoxy)-2-methylthio-4-pyridinecarbonitrile] | – | > 50 | > 50 | – | > 50 | > 50 | – | 1.25 (≈ 4.02 µM) | – | – | – | –
CSc1ccc(Oc2ccc(Cl)c(Cl)c2)nc1C#N [Example 25, 6-(3,4-Dichlorophenoxy)-3-methylthio-2-pyridinecarbonitrile] | – | – | 25 (≈ 80.3 µM) | – | > 50 | – | – | < 3.1 | – | – | – | –
CCSc1ccc(Oc2ccc(C(=O)c3ccccc3)cc2)nc1C#N [Example 26, 6-(4-Benzoylphenoxy)-3-ethylthio-2-pyridinecarbonitrile] | – | – | 25 (≈ 69.4 µM) | 27.5 | 50 | < 3.1 | – | < 3.1 | – | – | – | –
CCSc1ncc(Oc2ccc(Cl)c(Cl)c2)cc1C#N [Example 27, 5-(3,4-Dichlorophenoxy)-2-ethylthio-3-pyridinecarbonitrile] | – | – | – | – | > 50 | – | – | < 3.13 | – | – | – | –
CCSc1cnc(Oc2ccc(Cl)c(Cl)c2)c(C#N)c1 [Example 28, 2-(3,4-Dichlorophenoxy)-5-ethylthio-3-pyridinecarbonitrile] | – | > 50 | > 50 | – | > 50 | > 50 | – | 1.25 (≈ 3.84 µM) | – | – | – | –
C[S+]([O-])c1ccc(Oc2ccc(Cl)c(Cl)c2)nc1C#N (stereo not drawn) [Example 29, 6-(3,4-Dichlorophenoxy)-3-methylsulfinyl-2-pyridinecarbonitrile] | – | – | 12.5 (≈ 38.2 µM) | – | > 50 | 12.5 (≈ 38.2 µM) | – | 12.5 (≈ 38.2 µM) | – | – | – | –
C[S+]([O-])c1ccc(Oc2ccc(Cl)c(Cl)c2)nc1C(N)=O (stereo not drawn) [Example 30, 6-(3,4-Dichlorophenoxy)-3-methylsulfinyl-2-pyridinecarboxamide] | – | – | 6.3 (≈ 18.2 µM) | – | 25 | 6.3 (≈ 18.2 µM) | – | < 3.1 | – | – | – | –
CC[S+]([O-])c1ccc(Oc2ccc(Cl)c(Cl)c2)nc1C#N (stereo not drawn) [Example 31, 6-(3,4-Dichlorophenoxy)-3-ethylsulfinyl-2-pyridinecarbonitrile] | – | – | 12.5 (≈ 36.6 µM) | – | 50 | 12.5 (≈ 36.6 µM) | – | < 3.1 | – | – | – | –
CS(=O)(=O)c1ccc(Oc2ccc(Cl)c(Cl)c2)nc1C#N [Example 32, 6-(3,4-Dichlorophenoxy)-3-methylsulfonyl-2-pyridinecarbonitrile] | – | 3.13 (≈ 9.12 µM) | 6.25 (≈ 18.2 µM) | 10.1 | > 12.5 | 6.25 (≈ 18.2 µM) | > 12.5 | > 50 | > 12.5 | – | – | –
CCS(=O)(=O)c1ccc(Oc2ccc(Cl)c(Cl)c2)nc1C#N [Example 33, 6-(3,4-Dichlorophenoxy)-3-ethylsulfonyl-2-pyridinecarbonitrile] | – | – | – | – | 50 | < 3.1 | – | < 3.1 | – | – | – | –
CCCSc1ccc(Oc2ccc(Cl)c(Cl)c2)nc1C#N [Example 34, 6-(3,4-Dichlorophenoxy)-3-propylthio-2-pyridinecarbonitrile] | 25 (≈ 73.7 µM) | > 12.5 | – | – | > 50 | 3.13 (≈ 9.23 µM) | 1.56 (≈ 4.6 µM) | 0.08 (≈ 0.236 µM) | – | 1.56 (≈ 4.6 µM) | – | –
CCCSc1ccc(Oc2ccc(Cl)c(Cl)c2)c(C#N)n1 [Example 35, 3-(3,4-Dichlorophenoxy)-6-propylthio-2-pyridinecarbonitrile] | – | – | 0.78 (≈ 2.3 µM) | – | 50 | – | 12.5 (≈ 36.8 µM) | < 3.13 | 12.5 (≈ 36.8 µM) | – | > 12.5 | 12.5 (≈ 36.8 µM)
CC(C)Sc1ccc(Oc2ccc(Cl)c(Cl)c2)nc1C#N [Example 36, 6-(3,4-Dichlorophenoxy)-3-isopropylthio-2-pyridinecarbonitrile] | 1.56 (≈ 4.6 µM) | 3.13 (≈ 9.23 µM) | ≤ 1.56 | – | 12.5 | ≤ 1.56 | – | < 1.56 | – | – | – | –
CC(C)Sc1ccc(Oc2ccc(Cl)c(Cl)c2)c(C#N)n1 [Example 37, 3-(3,4-Dichlorophenoxy)-6-isopropylthio-2-pyridinecarbonitrile] | – | ≤ 1.56 | 3.13 (≈ 9.23 µM) | – | ≥ 25 | < 1.56 | – | < 1.56 | – | – | – | –
CCCCSc1ccc(Oc2ccc(Cl)c(Cl)c2)nc1C#N [Example 38, 6-(3,4-Dichlorophenoxy)-3-(n-butylthio)-2-pyridinecarbonitrile] | – | 12.5 (≈ 35.4 µM) | 12.5 (≈ 35.4 µM) | – | > 25 | 6.25 (≈ 17.7 µM) | – | < 1.56 | – | – | – | –
CCCCSc1ccc(Oc2ccc(Cl)c(Cl)c2)c(C#N)n1 [Example 39, 3-(3,4-Dichlorophenoxy)-6-(n-butylthio)-2-pyridinecarbonitrile] | – | 12.5 (≈ 35.4 µM) | > 25 | – | ≥ 25 | 3.13 (≈ 8.86 µM) | – | 1.56 (≈ 4.42 µM) | – | – | – | –
CCC(C)Sc1ccc(Oc2ccc(Cl)c(Cl)c2)nc1C#N (stereo not drawn) [Example 40, 6-(3,4-Dichlorophenoxy)-3-(sec-butylthio)-2-pyridinecarbonitrile] | 10 (≈ 28.3 µM) | 1.56 (≈ 4.42 µM) | 1.56 (≈ 4.42 µM) | – | > 25 | 1.25 (≈ 3.54 µM) | – | 0.16 (≈ 0.453 µM) | – | – | – | –
CCC(C)Sc1ccc(Oc2ccc(Cl)c(Cl)c2)c(C#N)n1 (stereo not drawn) [Example 41, 3-(3,4-Dichlorophenoxy)-6-(sec-butylthio)-2-pyridinecarbonitrile] | – | < 1.56 | 6.25 (≈ 17.7 µM) | – | > 25 | < 1.56 | – | ≤ 1.56 | – | – | – | –
CC(C)CSc1ccc(Oc2ccc(Cl)c(Cl)c2)nc1C#N [Example 42, 6-(3,4-Dichlorophenoxy)-3-(isobutylthio)-2-pyridinecarbonitrile] | – | 6.25 (≈ 17.7 µM) | 12.5 (≈ 35.4 µM) | – | > 25 | 6.25 (≈ 17.7 µM) | – | < 1.56 | – | – | – | –
CC(C)CSc1ccc(Oc2ccc(Cl)c(Cl)c2)c(C#N)n1 [Example 43, 3-(3,4-Dichlorophenoxy)-6-(isobutylthio)-2-pyridinecarbonitrile] | – | 3.13 (≈ 8.86 µM) | 12.5 (≈ 35.4 µM) | – | ≥ 25 | ≤ 1.56 | – | 1.56 (≈ 4.42 µM) | – | – | – | –
